This is an account of results in publication PMC11556746, “Anchorage of bacterial effector at plasma membrane via selective phosphatidic acid binding to modulate host cell signaling” (PLOS Pathogens, 2024).

In this assay the target is T1, BepE-BID1 (Bartonella henselae, UniProt A0A0R4J6H0).
T1 construct: gene BH13420; first BID domain (BID1) of BepE, His-tagged, expressed in E. coli, Ni-NTA
Description: metasurface plasmon resonance (SPR), immobilised protein. Particulars: lipid presented in liposomes (PC:POPA, 90% PC and 10% POPA); HBS-ET buffer. The class given is binding. For orientation: SPR reads the build-up and loss of mass on a sensor chip optically.

The structures appear in SMILES notation.

T1 sequence (A0A0R4J6H0 entry or part of it): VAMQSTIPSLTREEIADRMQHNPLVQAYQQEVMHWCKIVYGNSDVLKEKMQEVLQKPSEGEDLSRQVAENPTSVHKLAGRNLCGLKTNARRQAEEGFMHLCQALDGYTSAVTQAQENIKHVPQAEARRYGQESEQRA

`CCCCCCCC/C=C\CCCCCCCC(=O)O[C@H](COC(=O)CCCCCCCCCCCCCCC)COP(=O)(O)O` [POPA] registered a Kd of roughly 0.349 µM.

The term Kd denotes a measure of binding affinity in units of concentration. Read a low Kd as tighter binding.
